Data as given in article PMC11178820, “Synthesis of novel aryl-substituted 2-aminopyridine derivatives by the cascade reaction of 1,1-enediamines with vinamidinium salts to develop novel anti-Alzheimer agents” (Scientific Reports, 2024).
“Also recorded” adds a separate entry of the source. Where two headings read alike, the source gives them in different places.

Legend:
[1] = target: T1, AChE (Homo sapiens, UniProt P22303); assay: biochemical; settings: for inhibition at 50 µM: read-out: AChE % inhibition at 50 µM
T1 sequence (P22303 32-614): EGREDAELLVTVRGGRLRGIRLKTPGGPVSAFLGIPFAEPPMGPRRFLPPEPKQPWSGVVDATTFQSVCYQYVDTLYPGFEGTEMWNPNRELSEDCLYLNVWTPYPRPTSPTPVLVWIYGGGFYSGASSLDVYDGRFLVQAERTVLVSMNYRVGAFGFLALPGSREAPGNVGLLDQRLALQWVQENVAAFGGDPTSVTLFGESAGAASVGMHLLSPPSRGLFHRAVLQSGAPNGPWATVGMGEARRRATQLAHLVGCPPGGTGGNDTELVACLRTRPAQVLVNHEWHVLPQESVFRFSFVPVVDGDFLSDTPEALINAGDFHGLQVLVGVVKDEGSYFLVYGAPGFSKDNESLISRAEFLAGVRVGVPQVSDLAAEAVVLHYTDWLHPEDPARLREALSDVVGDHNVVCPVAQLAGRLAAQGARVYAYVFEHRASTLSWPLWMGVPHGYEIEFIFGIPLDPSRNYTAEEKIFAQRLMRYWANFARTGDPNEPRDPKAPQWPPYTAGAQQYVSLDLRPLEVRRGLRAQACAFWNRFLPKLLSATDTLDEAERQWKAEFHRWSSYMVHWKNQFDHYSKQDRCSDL
Experimental: (§1) Cholinesterase inhibitory activities of all analogs were evaluated spectrometrically using the modified Ellman method as previously reported. […] The absorbance of each well was measured at 415 nm using a microplate reader. IC50 and inhibition values were calculated with the software GraphPad Prism as the mean of three independent experiments and expressed as mean ± SEM[42],[43].

[2] = target: T2, BChE (Homo sapiens, UniProt P06276); assay: BChE inhibition, modified Ellman method; format: biochemical; settings: for inhibition at 50 µM: read-out: BChE % inhibition at 50 µM; for BChE inhibition, outcome in words: 50 µM screening
T2 sequence (P06276 29-602, species assumed): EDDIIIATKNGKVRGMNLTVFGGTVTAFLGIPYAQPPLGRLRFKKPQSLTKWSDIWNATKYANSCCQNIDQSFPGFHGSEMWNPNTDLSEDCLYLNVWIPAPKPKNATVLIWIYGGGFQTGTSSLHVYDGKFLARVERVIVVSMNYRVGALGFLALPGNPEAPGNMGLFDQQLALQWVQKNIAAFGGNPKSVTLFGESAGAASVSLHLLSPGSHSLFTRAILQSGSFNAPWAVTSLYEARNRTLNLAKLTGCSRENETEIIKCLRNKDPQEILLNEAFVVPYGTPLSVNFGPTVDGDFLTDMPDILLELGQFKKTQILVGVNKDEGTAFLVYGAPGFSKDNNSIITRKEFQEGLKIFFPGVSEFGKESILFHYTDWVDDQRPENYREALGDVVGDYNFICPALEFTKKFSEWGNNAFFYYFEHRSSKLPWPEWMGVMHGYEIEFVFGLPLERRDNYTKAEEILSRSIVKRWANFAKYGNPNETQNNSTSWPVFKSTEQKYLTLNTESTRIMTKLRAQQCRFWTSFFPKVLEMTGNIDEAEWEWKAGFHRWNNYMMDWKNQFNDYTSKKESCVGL
Experimental: as §1

[3] = target: T1, AChE; design: method as in doi:10.5530/ijper.52.4.75; settings: previously reported; unit inferred; cited from earlier work
[4] = target: T2, BChE; design: method as in doi:10.5530/ijper.52.4.75; settings: previously reported; unit inferred; cited from earlier work
[5] = tested on: hAChE; design: method as in PMID 23078965; settings: previously reported; cited from earlier work
[6] = tested on: hBChE; design: method as in PMID 23078965; settings: previously reported; cited from earlier work
[7] = target: T1, AChE; assay: Enzyme kinetic study against AChE (Lineweaver–Burk); format: biochemical
Experimental: To investigate the type of inhibition of AChE and BChE, kinetic studies of 3m were conducted using various concentrations of ATCI or BTCI as a substrate.
(§2) A Lineweaver–Burk plot was generated to identify the type of inhibition and the Michaelis–Menten constant (Km) value was determined from plot between reciprocal of the substrate concentration (1/[S]) and reciprocal of enzyme rate (1/V) over the various inhibitor concentrations[44],[45].

[8] = target: T2, BChE; assay: Enzyme kinetic study against BChE (Lineweaver–Burk); format: biochemical
Experimental: as §2

SMILES | inhibition at 50 µM ([1]; 50 µM, mean ± S.E) [%] | inhibition at 50 µM ([2]; 50 µM, mean ± S.E) [%] | other results
O=[N+]([O-])c1cc(-c2ccccc2)cnc1Nc1ccc(Cl)cc1 [3b, N-(4-Chlorophenyl)-3-nitro-5-phenylpyridin-2-amine] | 59.9 ± 11 | 27.5 ± 1.92 | –
COc1ccc(Nc2ncc(-c3ccccc3)cc2[N+](=O)[O-])cc1 [3a, N-(4-Methoxyphenyl)-3-nitro-5-phenylpyridin-2-amine] | 28.1 ± 3.93 | 22.1 ± 0.33 | –
O=[N+]([O-])c1cc(-c2ccc(Cl)cc2)cnc1Nc1cccc2ccccc12 [3i, 5-(4-Chlorophenyl)-N-(naphthalen-1-yl)-3-nitropyridin-2-amine] | 39.7 ± 1.67 | 35.3 ± 5.14 | –
O=C(N/N=C(/c1ccc(O)cc1)c1cccc(O)c1)Nc1ccncc1 [B] | – | – | IC50 [3]: 5.58 ± 0.016 µM; IC50 [4]: 6.44 ± 0.65 µM
Cc1ccc(Nc2ncc(-c3ccc(Br)cc3)cc2[N+](=O)[O-])cc1 [3l, 5-(4-Bromophenyl)-3-nitro-N-(p-tolyl)pyridin-2-amine] | 24.9 ± 5.01 | 6.96 ± 0.74 | –
O=[N+]([O-])c1cc(-c2ccc(Cl)cc2)cnc1Nc1ccc(Cl)cc1 [3g, N,5-Bis(4-chlorophenyl)-3-nitropyridin-2-amine] | 17.8 ± 2.74 | 12.3 ± 0.99 | –
O=[N+]([O-])c1cc(-c2ccc(F)cc2)cnc1Nc1ccc(Cl)cc1 [3e, N-(4-Chlorophenyl)-5-(4-fluorophenyl)-3-nitropyridin-2-amine] | 19.3 ± 3.3 | 19.6 ± 1.49 | BChE inhibition, outcome in words [2]: almost inactive
COc1ccc(Nc2ncc(-c3ccc(F)cc3)cc2[N+](=O)[O-])cc1 [3c, 5-(4-Fluorophenyl)-N-(4-methoxyphenyl)-3-nitropyridin-2-amine] | 10.7 ± 2.31 | 3.4 ± 1.63 | BChE inhibition, outcome in words [2]: almost inactive
Cc1ccc(Nc2ncc(-c3cccc4ccccc34)cc2[N+](=O)[O-])cc1 [3o, 5-(Naphthalen-1-yl)-3-nitro-N-(p-tolyl)pyridin-2-amine] | 35.6 ± 4.63 | 22.8 ± 2.7 | –
Cc1ccc(Nc2ncc(-c3ccc(F)cc3)cc2[N+](=O)[O-])cc1 [3d, 5-(4-Fluorophenyl)-3-nitro-N-(p-tolyl)pyridin-2-amine] | 39.4 ± 1.56 | 46.4 ± 2.42 | –
COc1ccc(Nc2ncc(-c3ccc(Br)cc3)cc2[N+](=O)[O-])cc1 [3j, 5-(4-Bromophenyl)-N-(4-methoxyphenyl)-3-nitropyridin-2-amine] | 38.8 ± 3.27 | 46.1 ± 0.92 | –
N#Cc1cc(C#N)c(NCCCC2CCN(Cc3ccccc3)CC2)nc1N [A] | – | – | IC50 [5]: 0.0094 ± 0.0004 µM; selectivity against hAChE than hBChE [5]: 703 fold; IC50 [6]: 6.6 ± 0.7 µM
COc1ccc(Nc2ncc(-c3ccc(Cl)cc3)cc2[N+](=O)[O-])cc1 [3f, 5-(4-Chlorophenyl)-N-(4-methoxyphenyl)-3-nitropyridin-2-amine] | 33 ± 1.86 | 31.7 ± 1.1 | –
Cc1ccccc1Nc1ncc(-c2ccc(Cl)cc2)cc1[N+](=O)[O-] [3h, 5-(4-Chlorophenyl)-3-nitro-N-(o-tolyl)pyridin-2-amine] | 23.1 ± 8.61 | 14.6 ± 1.95 | –
CC(C)(C)c1cc[n+](-c2cnc(Nc3ccc(Cl)cc3)c([N+](=O)[O-])c2)cc1.[O-][Cl+3]([O-])([O-])[O-] [3m, 4-(Tert-butyl)-6ʹ-((4-chlorophenyl)amino)-5'-nitro-[1,3'-bipyridin]-1-ium perchlorate] | – | – | IC50 [1]: 34.8 ± 3.71 µM; inhibition at 50 µM [1]: 74.3 ± 5.86%; IC50 [2]: 20.7 ± 1.01 µM; selectivity ratio for BChE over AChE [2]: 1.686; inhibition at 50 µM [2]: 76.7 ± 6.01%; type of inhibition, AChE ([7]; Lineweaver–Burk plot): mixed inhibition; also recorded: mix-type inhibition; Ki ([7]; secondary plot of Lineweaver–Burk data, substrate ATCI, read-out: inhibition constant (Ki), AChE): 8.92 µM; type of inhibition, BChE ([8]; Lineweaver–Burk plot): mixed type of inhibition; also recorded: mix-type inhibition; Kis, BChE ([8]; plot of 1/Vmax vs inhibitor concentration, substrate BTCI): 46.27 µM; Ki ([8]; plot of slope vs inhibitor concentration, substrate BTCI): 17.5 µM
O=[N+]([O-])c1cc(-c2ccc(Br)cc2)cnc1Nc1ccc(Cl)cc1 [3k, 5-(4-Bromophenyl)-N-(4-chlorophenyl)-3-nitropyridin-2-amine] | 27.8 ± 1.75 | 12.8 ± 1.7 | –
Cc1ccccc1Nc1ncc(-c2cccc3ccccc23)cc1[N+](=O)[O-] [3n, 5-(Naphthalen-1-yl)-3-nitro-N-(o-tolyl)pyridin-2-amine] | 40.7 ± 2.6 | 38.9 ± 2.97 | –
O=[N+]([O-])c1cc(-c2cccc3ccccc23)cnc1Nc1cccc2ccccc12 [3q, N,5-Di(naphthalen-1-yl)-3-nitropyridin-2-amine] | 34 ± 2.39 | 53.07 ± 0.42 | –
O=[N+]([O-])c1cc(-c2cccc3ccccc23)cnc1Nc1ccc(Cl)cc1 [3p, N-(4-Chlorophenyl)-5-(naphthalen-1-yl)-3-nitropyridin-2-amine] | 21.4 ± 1.86 | 11.7 ± 0.12 | –
